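Cultured in 96-well plates, cells were exposed to test compound for 48 hours across five concentrations. TGI marks complete inhibition of growth.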
How the values were obtained:
Test in all cases: inhibition of tumour cell growth, NCI panel, 48 h
U251 CNS = system: U251 CNS
M19-MEL melanoma = system: M19-MEL melanoma
SF-295 CNS = system: SF-295 CNS
EKVX NSCLC = system: EKVX NSCLC
NCI-H226 lung = system: NCI-H226 lung
RXF 393 renal = system: RXF 393 renal
SNB-19 CNS = system: SNB-19 CNS
NCI-H522 lung = system: NCI-H522 lung
SR leukemia = system: SR leukemia
DMS 273 small cell lung = system: DMS 273 small cell lung
LXFL 529 NSCLC = system: LXFL 529 NSCLC
DMS 114 small cell lung = system: DMS 114 small cell lung
M14 melanoma = system: M14 melanoma
SNB-78 CNS = system: SNB-78 CNS
SW-620 colon = system: SW-620 colon
HCC-2998 colon = system: HCC-2998 colon
NCI-H460 lung = system: NCI-H460 lung
LOX IMVI melanoma = system: LOX IMVI melanoma
SN12C renal = system: SN12C renal
KM20L2 colon = system: KM20L2 colon
HOP-62 NSCLC = system: HOP-62 NSCLC
KM12 colon = system: KM12 colon
SNB-75 CNS = system: SNB-75 CNS
HOP-92 NSCLC = system: HOP-92 NSCLC
SK-MEL-2 melanoma = system: SK-MEL-2 melanoma
DLD-1 colon = system: DLD-1 colon
SK-MEL-28 melanoma = system: SK-MEL-28 melanoma
SF-268 CNS = system: SF-268 CNS
A549 NSCLC = system: A549 NSCLC
OVCAR-8 ovarian = system: OVCAR-8 ovarian
OVCAR-5 ovarian = system: OVCAR-5 ovarian
ACHN renal = system: ACHN renal
UO-31 renal = system: UO-31 renal
HT29 colon = system: HT29 colon
TK-10 renal = system: TK-10 renal
NCI-H23 lung = system: NCI-H23 lung
HOP-18 NSCLC = system: HOP-18 NSCLC
CAKI-1 renal = system: CAKI-1 renal
SF-539 CNS = system: SF-539 CNS
XF 498 CNS = system: XF 498 CNS
UACC-257 melanoma = system: UACC-257 melanoma
MALME-3M melanoma = system: MALME-3M melanoma
K-562 leukemia = system: K-562 leukemia
SK-MEL-5 melanoma = system: SK-MEL-5 melanoma
OVCAR-3 ovarian = system: OVCAR-3 ovarian
SK-OV-3 ovarian = system: SK-OV-3 ovarian
HL-60(TB) leukemia = system: HL-60(TB) leukemia
HCT-116 colon = system: HCT-116 colon
COLO 205 colon = system: COLO 205 colon
IGROV1 ovarian = system: IGROV1 ovarian
UACC-62 melanoma = system: UACC-62 melanoma
CCRF-CEM leukemia = system: CCRF-CEM leukemia
RPMI-8226 leukemia = system: RPMI-8226 leukemia
HCT-15 colon = system: HCT-15 colon
OVCAR-4 ovarian = system: OVCAR-4 ovarian
MOLT-4 leukemia = system: MOLT-4 leukemia
786-0 renal = system: 786-0 renal
A498 renal = system: A498 renal

`CCC(C)CN1C(=O)NC(Cc2ccccc2)C1=O` (stereo not given) showed a TGI (U251 CNS) of over 100 µM, a TGI (M19-MEL melanoma) of over 100 µM and a TGI (SF-295 CNS) of over 100 µM. It also gave a TGI (EKVX NSCLC) of over 100 µM, a TGI (NCI-H226 lung) of over 100 µM and a TGI (RXF 393 renal) of over 100 µM. It also gave a TGI (SNB-19 CNS) of over 100 µM, a TGI (NCI-H522 lung) of over 100 µM and a TGI (SR leukemia) of over 100 µM. The TGI (DMS 273 small cell lung) was over 100 µM, the TGI (LXFL 529 NSCLC) was over 100 µM and the TGI (DMS 114 small cell lung) was over 100 µM. The TGI (M14 melanoma) was over 100 µM, the TGI (SNB-78 CNS) was over 100 µM and the TGI (SW-620 colon) was over 100 µM. The TGI (HCC-2998 colon) was over 100 µM, the TGI (NCI-H460 lung) was over 100 µM and the TGI (LOX IMVI melanoma) was over 100 µM. For the same compound, the TGI (SN12C renal) was over 100 µM, the TGI (KM20L2 colon) was over 100 µM and the TGI (HOP-62 NSCLC) was over 100 µM. It also gave a TGI (KM12 colon) of over 100 µM, a TGI (SNB-75 CNS) of over 100 µM and a TGI (HOP-92 NSCLC) of 90.8 µM. It also gave a TGI (SK-MEL-2 melanoma) of over 100 µM, a TGI (DLD-1 colon) of over 100 µM and a TGI (SK-MEL-28 melanoma) of over 100 µM. The TGI (SF-268 CNS) was over 100 µM, the TGI (A549 NSCLC) was over 100 µM and the TGI (OVCAR-8 ovarian) was over 100 µM. For the same compound, the TGI (OVCAR-5 ovarian) was over 100 µM, the TGI (ACHN renal) was over 100 µM and the TGI (UO-31 renal) was over 100 µM. For the same compound, the TGI (HT29 colon) was over 100 µM, the TGI (TK-10 renal) was over 100 µM and the TGI (NCI-H23 lung) was over 100 µM. It also gave a TGI (HOP-18 NSCLC) of over 100 µM, a TGI (CAKI-1 renal) of over 100 µM and a TGI (SF-539 CNS) of over 100 µM. It also gave a TGI (XF 498 CNS) of over 100 µM, a TGI (UACC-257 melanoma) of 79.5 µM and a TGI (MALME-3M melanoma) of over 100 µM.

Compound `O=C(NC(=S)Nc1ccccc1)c1ccc([N+](=O)[O-])cc1` has a TGI (M19-MEL melanoma) of over 100 µM, a TGI (SF-295 CNS) of over 100 µM and a TGI (K-562 leukemia) of over 100 µM. The TGI (SK-MEL-5 melanoma) was over 100 µM, the TGI (EKVX NSCLC) was over 100 µM and the TGI (OVCAR-3 ovarian) was over 100 µM. It also gave a TGI (SK-OV-3 ovarian) of over 100 µM, a TGI (NCI-H522 lung) of 86.6 µM and a TGI (DMS 273 small cell lung) of over 100 µM. For the same compound, the TGI (HL-60(TB) leukemia) was over 100 µM, the TGI (HCT-116 colon) was over 100 µM and the TGI (COLO 205 colon) was over 100 µM. It also gave a TGI (LXFL 529 NSCLC) of over 100 µM, a TGI (DMS 114 small cell lung) of 44.5 µM and a TGI (M14 melanoma) of over 100 µM. The TGI (SNB-78 CNS) was over 100 µM, the TGI (SW-620 colon) was over 100 µM and the TGI (HCC-2998 colon) was over 100 µM. It also gave a TGI (NCI-H460 lung) of over 100 µM, a TGI (LOX IMVI melanoma) of over 100 µM and a TGI (SN12C renal) of over 100 µM. For the same compound, the TGI (KM20L2 colon) was over 100 µM, the TGI (IGROV1 ovarian) was over 100 µM and the TGI (UACC-62 melanoma) was over 100 µM. It also gave a TGI (HOP-62 NSCLC) of over 100 µM, a TGI (CCRF-CEM leukemia) of over 100 µM and a TGI (KM12 colon) of over 100 µM. It also gave a TGI (SNB-75 CNS) of over 100 µM, a TGI (HOP-92 NSCLC) of over 100 µM and a TGI (RPMI-8226 leukemia) of over 100 µM. It also gave a TGI (DLD-1 colon) of over 100 µM, a TGI (HCT-15 colon) of over 100 µM and a TGI (SK-MEL-28 melanoma) of over 100 µM. The TGI (SF-268 CNS) was over 100 µM, the TGI (OVCAR-4 ovarian) was over 100 µM and the TGI (MOLT-4 leukemia) was over 100 µM. The TGI (A549 NSCLC) was over 100 µM, the TGI (786-0 renal) was over 100 µM and the TGI (OVCAR-8 ovarian) was over 100 µM. It also gave a TGI (ACHN renal) of over 100 µM, a TGI (UO-31 renal) of over 100 µM and a TGI (HT29 colon) of over 100 µM. For the same compound, the TGI (TK-10 renal) was over 100 µM, the TGI (NCI-H23 lung) was over 100 µM and the TGI (HOP-18 NSCLC) was over 100 µM. The TGI (CAKI-1 renal) was over 100 µM, the TGI (XF 498 CNS) was over 100 µM and the TGI (UACC-257 melanoma) was over 100 µM. The TGI (MALME-3M melanoma) was over 100 µM.

`Nc1nc(SCCC/C=C/B(O)O)nc2c1ncn2C1OC(COP(=O)(O)O)C(O)C1O` (stereo not given) showed a TGI (U251 CNS) of over 203 µM, a TGI (M19-MEL melanoma) of over 203 µM and a TGI (SF-295 CNS) of over 203 µM. It also gave a TGI (K-562 leukemia) of over 203 µM, a TGI (SK-MEL-5 melanoma) of over 203 µM and a TGI (NCI-H226 lung) of over 203 µM. It also gave a TGI (OVCAR-3 ovarian) of over 203 µM, a TGI (SK-OV-3 ovarian) of over 203 µM and a TGI (SNB-19 CNS) of over 203 µM. The TGI (NCI-H522 lung) was over 203 µM, the TGI (SR leukemia) was over 203 µM and the TGI (DMS 273 small cell lung) was over 203 µM. The TGI (HL-60(TB) leukemia) was over 203 µM, the TGI (HCT-116 colon) was over 203 µM and the TGI (COLO 205 colon) was over 203 µM. The TGI (DMS 114 small cell lung) was over 203 µM, the TGI (M14 melanoma) was over 203 µM and the TGI (SNB-78 CNS) was over 203 µM. The TGI (SW-620 colon) was over 203 µM, the TGI (NCI-H460 lung) was over 203 µM and the TGI (LOX IMVI melanoma) was over 203 µM. The TGI (SN12C renal) was over 203 µM, the TGI (KM20L2 colon) was over 203 µM and the TGI (IGROV1 ovarian) was over 203 µM. For the same compound, the TGI (UACC-62 melanoma) was over 203 µM, the TGI (HOP-62 NSCLC) was over 203 µM and the TGI (CCRF-CEM leukemia) was over 203 µM. It also gave a TGI (KM12 colon) of over 203 µM, a TGI (SNB-75 CNS) of over 203 µM and a TGI (HOP-92 NSCLC) of over 203 µM. It also gave a TGI (SK-MEL-2 melanoma) of over 203 µM, a TGI (RPMI-8226 leukemia) of over 203 µM and a TGI (DLD-1 colon) of over 203 µM. It also gave a TGI (HCT-15 colon) of over 203 µM, a TGI (SK-MEL-28 melanoma) of over 203 µM and a TGI (SF-268 CNS) of over 203 µM. It also gave a TGI (OVCAR-4 ovarian) of over 203 µM, a TGI (MOLT-4 leukemia) of over 203 µM and a TGI (A549 NSCLC) of over 203 µM. The TGI (786-0 renal) was over 203 µM, the TGI (OVCAR-8 ovarian) was over 203 µM and the TGI (OVCAR-5 ovarian) was over 203 µM. For the same compound, the TGI (ACHN renal) was over 203 µM, the TGI (UO-31 renal) was over 203 µM and the TGI (HT29 colon) was over 203 µM. It also gave a TGI (TK-10 renal) of over 203 µM, a TGI (NCI-H23 lung) of over 203 µM and a TGI (HOP-18 NSCLC) of over 203 µM. For the same compound, the TGI (CAKI-1 renal) was over 203 µM, the TGI (SF-539 CNS) was over 203 µM and the TGI (XF 498 CNS) was over 203 µM. It also gave a TGI (UACC-257 melanoma) of over 203 µM, a TGI (MALME-3M melanoma) of over 203 µM and a TGI (A498 renal) of over 203 µM.

— PubChem BioAssay (NCI)
